# Test: Repeat Application Soap Chamber (irritation) Test
# Conditions: occlusive patches on volar forearm, six days, dilute solutions
# Experimental: Twelve male and female subjects between the ages of 18 and 65, who were in good health, were enrolled in the test. Dilute solutions of all test compositions were made each day of patching. Patches were totally occlusive chambers, 12 mm in diameter, applied to the volar forearm for a total of six days. Expert visual gradings, using a four-point scale for erythema, scaling, and fissuring were used as the objective measure of observation for this study. Grading was performed at baseline (i.e., when panelists were enrolled), 30 minutes after patch removal on days one to six, and at 24 hours on days one to six. A maximum for each tested characteristic was established as a “3” score.
smiles,measurement,value
"CCCCCCCCCCCCOS(=O)(=O)[O-].[Na+] [SLS, sodium lauryl sulfate]","irritation potential, ranking from highest to lowest",SLS>HCPHW-E>HCPHW-H>HCPHW-G>HCPHW-F>Composition A>Negative Control
